Reference: ChEMBL document CHEMBL1138897, “Function of the alkyl side chains of Deltalac-acetogenins in the inhibitory effect on mitochondrial complex I (NADH-ubiquinone oxidoreductase)” (Bioorg Med Chem Lett, 2006)
pIC50: −log10 of the molar value.

target: Mitochondrial complex I; NADH oxidoreductase (Bos taurus, UniProt P25708+P52505); assay: Inhibition of bovine mitochondrial NADH-ubiquinone oxidoreductase by NADH oxidase assay; assay type: protein-complex assay
Sequence (P25708 21-464 limits assumed, other chains not shown): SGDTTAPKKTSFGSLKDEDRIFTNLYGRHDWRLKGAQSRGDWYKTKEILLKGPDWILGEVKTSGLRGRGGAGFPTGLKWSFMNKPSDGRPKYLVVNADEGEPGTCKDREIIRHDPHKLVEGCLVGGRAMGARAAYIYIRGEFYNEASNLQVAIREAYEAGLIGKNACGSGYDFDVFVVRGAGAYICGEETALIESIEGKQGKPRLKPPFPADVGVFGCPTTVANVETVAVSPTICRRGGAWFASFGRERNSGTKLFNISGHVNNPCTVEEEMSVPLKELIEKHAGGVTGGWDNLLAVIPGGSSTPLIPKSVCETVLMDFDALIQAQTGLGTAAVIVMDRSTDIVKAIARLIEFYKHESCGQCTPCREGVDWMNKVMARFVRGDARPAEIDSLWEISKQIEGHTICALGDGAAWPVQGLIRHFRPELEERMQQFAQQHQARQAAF

Row | Compound | pIC50
1 | CCCCCCCCCC[C@@H](O)[C@H]1CC[C@H]([C@H]2CC[C@H]([C@H](O)CCCCCC)O2)O1 | 8.49
2 | CCCCCCCC[C@@H](O)[C@H]1CC[C@H]([C@H]2CC[C@H]([C@H](O)CCCCCCCC)O2)O1 | 7.35
3 | CCCCCCCCCCCC[C@@H](O)[C@H]1CC[C@H]([C@H]2CC[C@H]([C@H](O)CCCCCCCC)O2)O1 | 8.12
4 | CCCCCCCCCCCC[C@@H](O)[C@H]1CC[C@H]([C@H]2CC[C@H]([C@H](O)CCCCCCCCCCCC)O2)O1 | 8.05
5 | CCCCCCCCCCCCCC[C@@H](O)[C@H]1CC[C@H]([C@H]2CC[C@H]([C@@H](C)O)O2)O1 | 6.39
6 | CCCCC(CC)CCC[C@@H](O)[C@H]1CC[C@H]([C@H]2CC[C@H]([C@H](O)CCCC(CC)CCCC)O2)O1 (some centres not stated) | 6.06
7 | CCCCCCCCCC[C@@H](O)[C@H]1CC[C@H]([C@H]2CC[C@H]([C@@H](C)O)O2)O1 | 6.55
8 | CCCCCCCCCCCCCC[C@@H](O)[C@H]1CC[C@H]([C@H]2CC[C@H]([C@H](O)CCCCCC)O2)O1 | 7.47
9 | CCCCCCCCCC[C@@H](O)[C@H]1CC[C@H]([C@H]2CC[C@H]([C@H](O)CCCC(CCC)CCC)O2)O1 | 7.57
10 | CCCC(CCC)CCC[C@@H](O)[C@H]1CC[C@H]([C@H]2CC[C@H]([C@H](O)CCCC(CCC)CCC)O2)O1 | 5.82
11 | CCCCCCCCCC[C@@H](O)[C@H]1CC[C@H]([C@H]2CC[C@H]([C@H](O)CC)O2)O1 | 7.35
12 | CCCCCCCCCC[C@@H](O)[C@H]1CC[C@H]([C@H]2CC[C@H]([C@H](O)CCCCCCCCCC)O2)O1 [dleta-lac-Acetogenin] | 8.77
